Like-named read-outs stand apart in the source and are kept apart here.
Experiments:
[1] = target: T1, kidney derived Caki-1 cells, which contain OCT3 (Homo sapiens, UniProt O75751); conditions: cited from earlier work
T1 construct: kidney derived Caki-1 cells, which contain OCT3; endogenous in cells; host or cells: Caki-1
T1 sequence (O75751 1-556): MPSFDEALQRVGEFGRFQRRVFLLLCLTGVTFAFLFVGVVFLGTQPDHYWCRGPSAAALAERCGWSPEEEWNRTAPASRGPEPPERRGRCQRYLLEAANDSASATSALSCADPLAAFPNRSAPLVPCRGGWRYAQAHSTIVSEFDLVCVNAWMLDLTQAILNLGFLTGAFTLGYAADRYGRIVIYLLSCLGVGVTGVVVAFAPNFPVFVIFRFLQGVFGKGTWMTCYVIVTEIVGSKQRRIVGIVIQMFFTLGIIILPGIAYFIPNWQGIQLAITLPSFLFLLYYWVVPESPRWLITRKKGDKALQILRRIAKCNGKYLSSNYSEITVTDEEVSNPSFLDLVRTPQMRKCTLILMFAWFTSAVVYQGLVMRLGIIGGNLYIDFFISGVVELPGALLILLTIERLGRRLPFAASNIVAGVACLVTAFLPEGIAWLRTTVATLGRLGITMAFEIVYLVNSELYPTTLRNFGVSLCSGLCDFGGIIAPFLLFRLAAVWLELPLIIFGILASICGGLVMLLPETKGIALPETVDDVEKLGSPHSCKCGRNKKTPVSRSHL

other OCT subtypes = conditions: cited from earlier work
OCT3/uptake2 = target: T2, OCT3/uptake2 (Homo sapiens, UniProt O75751); conditions: cited from earlier work
T2 sequence (O75751 1-556): T1 sequence (O75751 1-556)

[2] = intravenous administration; cited from earlier work
Male ddY mice [3] = test: Forced swimming test (depression model); assay type: in vivo
Method: Male ddY mice were used for the experiments. Mice raised for three or more days after purchase were made to swim for 300 seconds in a beaker (15 cm in diameter, 20 cm in height). Immobility time was measured, and the mice were divided into groups such that the average immobility time was approximately the same for each group. The day after swimming an antisense (OCT3 antisense) constructed from an OCT3 gene sequence was continuously infused into the cerebral ventricle, using an osmotic pump according to the reported literature (J. Chem. Neuroanat. 2000. 20: 375-87). Further, a group infused with Ringer's solution, which is an antisense solvent (the solvent group) and a group infused with a cDNA sequence with the same bases as the antisense but in a random sequence without homology to known genes (the scrambled OCT3 antisense group) were also prepared. One week after infusion the mice were returned to the beakers and made to swim for 300 seconds, and immobility time was measured. Imipramine anti-depressant was intraperitoneally administered 30 minutes before the beginning of the test.

Male ddY mice [4] = conditions: anti-depressant administration: chlordiazepoxide 100 mg/kg, imipramine 16 mg/kg; Behav Brain Res. 73, 43-46, 1996; cited from earlier work
[5] = system: cultured porcine tubular cells; conditions: cited from earlier work

C[C@]12C[C@H](O)[C@H]3[C@@H](CCC4=CC(=O)CC[C@@]43C)[C@@H]1CC[C@@H]2C(=O)CO [Corticosterone, corticosterone]
uptake of MPP+ [1]: suppresses

CCN1C(=Cc2cc(C)nc(-c3ccccc3)[n+]2C)C=Cc2ccccc21.[Cl-] [cyanine 863]
inhibitory activity towards other OCT subtypes (other OCT subtypes): potent inhibitory activity
inhibition of OCT3/uptake2 (OCT3/uptake2): potent OCT3 inhibitors

CCN1/C(=C/c2ccc3ccccc3[n+]2CC)C=Cc2ccccc21.[I-] [decynium 22]
inhibitory activity towards other OCT subtypes (other OCT subtypes): potent inhibitory activity
inhibition of OCT3/uptake2 (OCT3/uptake2): potent OCT3 inhibitors

CC(C)N1C=CC(=Cc2ccc3ccccc3[n+]2C(C)C)c2ccccc21 [disprocynium24, 1,1′-diisopropyl-2,4′-cyanine]
inhibitory activity towards other OCT subtypes (other OCT subtypes): potent inhibitory activity
excretion of monoamine into urine [2]: strongly suppresses
inhibition of OCT3/uptake2 (OCT3/uptake2): potent inhibitor
inhibition of OCT3/uptake2 (OCT3/uptake2; listed as disprocynium 24): potent OCT3 inhibitors

CN(C)CCCN1c2ccccc2CCc2ccccc21 [imipramine]
immobility time (average value) (Male ddY mice [3]; imipramine 4 mg/kg intraperitoneally 30 minutes before test, 300 seconds of swimming, FIG. 1B): 245 ± 15 s
condition of immobility (Male ddY mice [4]): shortened

COc1cc(C(O)CN)ccc1O (stereo not shown) [normetanephrine]
immobility time (average value) (Male ddY mice [3]; normetanephrine 2.5 μg/0.25 μl/hr continuous infusion to cerebral ventricle, one week, FIG. 2): 108 ± 29 s

CC(=O)[C@H]1CC[C@H]2[C@@H]3CCC4=CC(=O)CC[C@]4(C)[C@H]3CC[C@]12C [progesterone]
noradrenaline uptake [5]: significantly reduce
